# From PubChem BioAssay AID1259407 (Chemical Carcinogenesis Research Information System (CCRIS), 2018)
# The source made the active and inactive calls. How the calls were made is not given here.
# Test system: CCRIS mutagenicity, Ames/micronucleus/aberration tests
# Assay: CCRIS mutagenicity studies
# [1] = Test System: AMES SALMONELLA TYPHIMURIUM, Strain/Indicator: TA98, Metabolic Activation: HAMSTER, LIVER, S-9, AROCLOR 1254 (10%), Method: PREINCUBATION
# [2] = Test System: AMES SALMONELLA TYPHIMURIUM, Strain/Indicator: TA98, Metabolic Activation: NONE, Method: PREINCUBATION
# [3] = Test System: AMES SALMONELLA TYPHIMURIUM, Strain/Indicator: TA98, Metabolic Activation: RAT, LIVER, S-9, AROCLOR 1254 (10%), Method: PREINCUBATION
# [4] = Test System: AMES SALMONELLA TYPHIMURIUM, Strain/Indicator: TA100, Metabolic Activation: HAMSTER, LIVER, S-9, AROCLOR 1254 (10%), Method: PREINCUBATION
# [5] = Test System: AMES SALMONELLA TYPHIMURIUM, Strain/Indicator: TA100, Metabolic Activation: NONE, Method: PREINCUBATION
# [6] = Test System: AMES SALMONELLA TYPHIMURIUM, Strain/Indicator: TA1535, Metabolic Activation: HAMSTER, LIVER, S-9, AROCLOR 1254 (10%), Method: PREINCUBATION
# [7] = Test System: AMES SALMONELLA TYPHIMURIUM, Strain/Indicator: TA1535, Metabolic Activation: NONE, Method: PREINCUBATION
# [8] = Test System: AMES SALMONELLA TYPHIMURIUM, Strain/Indicator: TA1535, Metabolic Activation: RAT, LIVER, S-9, AROCLOR 1254 (10%), Method: PREINCUBATION
Compound,mutagenic call [1],mutagenic call [2],mutagenic call [3],mutagenic call [4],mutagenic call [5],mutagenic call [6],mutagenic call [7],mutagenic call [8],other results
CCN(CC)c1ccc(N)cc1,active; positive,inactive; negative,active; positive,active; positive,inactive; negative,inactive; negative,inactive; negative,inactive; negative,"mutagenic call (End Point: IN VITRO CHROMOSOMAL ABERRATIONS, Test System: CHINESE HAMSTER LUNG CELLS (CHL), Metabolic Activation: RAT, LIVER, S-9, KC-400): inactive; negative; mutagenic call (End Point: IN VITRO CHROMOSOMAL ABERRATIONS, Test System: CHINESE HAMSTER OVARY CELLS (CHO), Metabolic Activation: NONE): active; positive (structural changes); mutagenic call (End Point: IN VITRO CHROMOSOMAL ABERRATIONS, Test System: CHINESE HAMSTER OVARY CELLS (CHO), Metabolic Activation: RAT, LIVER, S-9, AROCLOR 1254): inactive; negative; mutagenic call (Test System: AMES SALMONELLA TYPHIMURIUM, Strain/Indicator: TA97, Metabolic Activation: HAMSTER, LIVER, S-9, AROCLOR 1254 (10%), Method: PREINCUBATION): active; positive; mutagenic call (Test System: AMES SALMONELLA TYPHIMURIUM, Strain/Indicator: TA97, Metabolic Activation: NONE, Method: PREINCUBATION): inactive; negative; mutagenic call (Test System: AMES SALMONELLA TYPHIMURIUM, Strain/Indicator: TA97, Metabolic Activation: RAT, LIVER, S-9, AROCLOR 1254 (10%), Method: PREINCUBATION): inactive; negative; mutagenic call (Test System: AMES SALMONELLA TYPHIMURIUM, Strain/Indicator: TA100, Metabolic Activation: RAT, LIVER, S-9, AROCLOR 1254 (30%), Method: PREINCUBATION): inactive; negative"
C=C(C)C(=O)OC(C)C,inactive; negative,inactive; negative,inactive; negative,inactive; negative,inactive; negative,inactive; negative,inactive; negative,inactive; negative,"mutagenic call (Test System: AMES SALMONELLA TYPHIMURIUM, Strain/Indicator: TA100, Metabolic Activation: RAT, LIVER, S-9, AROCLOR 1254 (10%), Method: PREINCUBATION): inactive; negative; mutagenic call (Test System: AMES SALMONELLA TYPHIMURIUM, Strain/Indicator: TA1537, Metabolic Activation: HAMSTER, LIVER, S-9, AROCLOR 1254 (10%), Method: PREINCUBATION): inactive; negative; mutagenic call (Test System: AMES SALMONELLA TYPHIMURIUM, Strain/Indicator: TA1537, Metabolic Activation: NONE, Method: PREINCUBATION): inactive; negative; mutagenic call (Test System: AMES SALMONELLA TYPHIMURIUM, Strain/Indicator: TA1537, Metabolic Activation: RAT, LIVER, S-9, AROCLOR 1254 (10%), Method: PREINCUBATION): inactive; negative"
O=C1c2ccccc2-c2c3c(cc4ccnc1c24)OCO3,,inactive; negative,,,inactive; negative,,,,"mutagenic call (Test System: AMES SALMONELLA TYPHIMURIUM, Strain/Indicator: TA98, Metabolic Activation: RAT, LIVER, S-9, PHENOBARBITAL AND BETA-NAPHTHOFLAVONE, Method: PREINCUBATION): active; positive; mutagenic call (Test System: AMES SALMONELLA TYPHIMURIUM, Strain/Indicator: TA100, Metabolic Activation: RAT, LIVER, S-9, PHENOBARBITAL AND BETA-NAPHTHOFLAVONE, Method: PREINCUBATION): active; positive"
